A short description of this data set: Hygroscopicity of solid form. Type of data set: physicochemical. The conditions noted are these: relative to amorphous tazobactam arginine and amorphous tazobactam sodium.

For the compound `C[C@]1(Cn2ccnn2)[C@H](C(=O)O)N2C(=O)CC2S1(=O)=O` (stereo partly shown) [Tazobactam arginine polymorph Ia, Tazobactam Arginine], the hygroscopicity result was “low hygroscopicity”.

The values above are taken from patent publication US20140213567A1, “TAZOBACTAM ARGININE ANTIBIOTIC COMPOSITIONS” (Cubist Pharmaceuticals, Inc., priority 2012, published 2014).
